US8507488B2, “Fused nitrogen containing heterocycles and compositions thereof as kinase inhibitors” (IRM LLC, priority 2008, dated 2013)

Experiments:
[1] = target: T1, full length rTrkA and mNGF (Rattus norvegicus, UniProt P35739); experiment: Inhibition of proliferation of Ba/F3 cells co-expressing full length rTrkA and mNGF (BaF3/TrkA-NFG); type: cell-based; settings: BaF3 TRKA-NGF cells, CTG readout
T1 construct: co-expressing full length rTrkA and mNGF; expressed in transfected cells; host or cells: Ba/F3 cells
T1 sequence (P35739 33-799): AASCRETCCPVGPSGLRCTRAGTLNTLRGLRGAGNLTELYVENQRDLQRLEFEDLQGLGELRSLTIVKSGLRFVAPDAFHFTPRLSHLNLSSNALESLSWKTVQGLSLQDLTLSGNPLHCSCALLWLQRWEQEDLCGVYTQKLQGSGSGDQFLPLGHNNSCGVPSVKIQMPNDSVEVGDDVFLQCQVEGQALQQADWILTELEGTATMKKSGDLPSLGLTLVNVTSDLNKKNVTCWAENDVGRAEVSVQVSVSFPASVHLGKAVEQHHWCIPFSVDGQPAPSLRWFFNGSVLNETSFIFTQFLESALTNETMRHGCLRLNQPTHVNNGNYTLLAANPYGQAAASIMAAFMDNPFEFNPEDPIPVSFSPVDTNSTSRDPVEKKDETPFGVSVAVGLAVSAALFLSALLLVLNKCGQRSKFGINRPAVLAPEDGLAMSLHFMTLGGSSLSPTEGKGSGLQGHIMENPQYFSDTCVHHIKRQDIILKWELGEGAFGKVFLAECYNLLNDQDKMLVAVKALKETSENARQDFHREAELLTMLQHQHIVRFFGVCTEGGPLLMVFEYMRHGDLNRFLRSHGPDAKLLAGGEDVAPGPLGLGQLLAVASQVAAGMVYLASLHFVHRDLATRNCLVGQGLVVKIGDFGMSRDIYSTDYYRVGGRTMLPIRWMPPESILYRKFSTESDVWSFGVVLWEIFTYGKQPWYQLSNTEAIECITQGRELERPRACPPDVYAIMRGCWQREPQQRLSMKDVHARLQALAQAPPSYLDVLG
T1 sequence (P01139 122-241 partner): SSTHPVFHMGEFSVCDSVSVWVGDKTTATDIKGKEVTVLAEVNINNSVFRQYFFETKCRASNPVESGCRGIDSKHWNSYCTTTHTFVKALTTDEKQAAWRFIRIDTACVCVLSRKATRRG

[2] = test system: parental BaF3 cells; experiment: Proliferation of parental (untransformed) Ba/F3 cells maintained with IL3; type: cell-based, murine; settings: Mus musculus, BaF3, parental Ba/F3 cells; read-out: Ba/F3 IC 50
Procedure: (§1) Test compounds were dissolved in DMSO (10 mM) and transferred into 1.4 mL flat bottom or V-shaped Matrix tubes carrying a unique 2D matrix chip by individual compound hubs. The numbers of these chips were distinctively linked to the individual compound identification numbers. The stock solutions were stored at −20° C. if not used immediately. For the test procedure the vials were defrosted and identified by a scanner whereby a working sheet is generated that guides the subsequent working steps.
(§2) Compound dilutions were made in 384 well plates. This format enabled the assay of maximally 28 individual test compounds at 12 concentrations (single points) including 2 reference compounds. The dilution protocol included the production of pre-dilution plates, master plates and assay plates: • Compound plates: 30 μL of individual compound (10 mM) DMSO solution including standard compound were transferred into columns 1 and 13 of a 384 well plate. 20 μL of DMSO were added to the rest of the wells and the compounds were serially diluted (1:3) by transferring 10 μL from a well in column 1 or 13 to the next well in column 2 or 14 respectively and successively with the help of a Minitrack robot. • Assay plates: Identical assay plates were then prepared by adding […] each of compound dilutions of the compound plates into 384-well “assay plates”. In the following the compounds were mixed with 50 μL of assays components (cells or enzyme) and tested for their inhibitory activity.
(§3) The cell line used is the luciferase expressing Ba/F3 murine hematopoietic progenitor cell line transformed with human Tel-TrkA, Tel-TrkB or Tel-TrkC cDNAs (Ba/F3 EN A/B/C). These cells maintained in RPMI/10% fetal bovine serum (RPMI/FCS) supplemented with penicillin 50 mg/mL, streptomycin 50 mg/mL and L-glutamine […]. Untransformed Ba/F3 cells were similarly maintained with the addition 5 ng/ml of murine recombinant IL3. 50 μl of a Ba/F3 or Ba/F3 EN A/B/C cell suspension were plated in Greiner 384 well microplates (white)) at a density of 2000 cells per well. 50 nl of serially diluted test compound (10-0.0001 mM in DMSO solution) is added to each well. The cells were incubated for 48 hours at 37° C., 5% CO2. 25 μl of Bright Glo® (Promega) luciferase substrate is added to each well. The emited luminiscence is quantified using the ACQUEST™ luminescence system (Molecular Devices). IC50 values were calculated by linear regression analysis of the percentage inhibition of each compound at 12 concentrations.

[3] = target: T2, Tel-TrkB (Homo sapiens, UniProt Q16620); experiment: Inhibition of proliferation of Ba/F3 cells expressing Tel-TrkB (BaF3/Tel-TrkB); type: cell-based; settings: Ba/F3 Tel-TrkB cells; read-out: Ba/F3 Tel-TrkB IC 50
T2 construct: dimerization domain of Tel (ETV6) transcription factor (fusion partner, human ETV6 P41212); expressed in transfected cells; host or cells: luciferase expressing Ba/F3 murine hematopoietic progenitor cells; the other entry of the earlier key: ETV6 (P41212, Transcription factor ETV6)
T2 sequence (Q16620 538-822 limits assumed): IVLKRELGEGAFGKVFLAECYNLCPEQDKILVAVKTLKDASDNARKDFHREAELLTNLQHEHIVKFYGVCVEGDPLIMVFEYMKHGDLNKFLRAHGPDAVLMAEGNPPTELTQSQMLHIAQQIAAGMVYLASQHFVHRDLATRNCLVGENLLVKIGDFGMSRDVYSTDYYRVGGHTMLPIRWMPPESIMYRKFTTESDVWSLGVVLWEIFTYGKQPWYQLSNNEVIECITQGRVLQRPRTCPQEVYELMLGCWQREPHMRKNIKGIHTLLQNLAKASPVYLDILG
Procedure: as §1, §2
(§4) Compounds of Formula (I) were tested for their antiproliferative effect on Ba/F3 cells expressing either Tel-TrkA, Tel-TrkB or Tel-TrkC and an additional panel of 34 selected diverse kinases activated by fusion to the dimerizing partners Bcr or Tel (Abl, A1K, BMX, EphA3, EphB2, FGFR2, FGFR3, FGFR4, FGR, FLT1, FLT3, FLT4, FMS, IGF1R, InsR, JAK1, JAK2, JAK3, KDR, Kit, Lck, Lyn, MER, MET, PDGFRb, RET, RON, Ros-1, Src, Aurora, TIE2, TYK2, Tie1, ZAP70). The antiproliferative effect of these compounds on the different cell lines and on the non transformed cells were tested at 12 different concentrations of 3-fold serially diluted compounds in 384 well plates as described above (in media lacking IL3). The IC50 values of the compounds the different cell lines were determined from dose response curves.
as §3, with “50 nl of serially diluted test compound (10-0.0001 mM in DMSO solution) is added to each well.” left out

[4] = test system: KM12 luc; experiment: KM12 luc cell proliferation assay (Table 8); type: cell-based; settings: KM12 luc cells; read-out: KM12 luc IC 50
[5] = target: T3, Tel-TrkC (Homo sapiens, UniProt Q16288); experiment: Inhibition of proliferation of Ba/F3 cells expressing Tel-TrkC (BaF3/Tel-TrkC); type: cell-based; settings: read-out: Ba/F3 Tel-TrkC IC 50
T3 construct: The cells also express luciferase as the viability read-out; it is not fused to the kinase; P41212 (Transcription factor ETV6)
T3 sequence (Q16288 whole entry, the tested form may be a part): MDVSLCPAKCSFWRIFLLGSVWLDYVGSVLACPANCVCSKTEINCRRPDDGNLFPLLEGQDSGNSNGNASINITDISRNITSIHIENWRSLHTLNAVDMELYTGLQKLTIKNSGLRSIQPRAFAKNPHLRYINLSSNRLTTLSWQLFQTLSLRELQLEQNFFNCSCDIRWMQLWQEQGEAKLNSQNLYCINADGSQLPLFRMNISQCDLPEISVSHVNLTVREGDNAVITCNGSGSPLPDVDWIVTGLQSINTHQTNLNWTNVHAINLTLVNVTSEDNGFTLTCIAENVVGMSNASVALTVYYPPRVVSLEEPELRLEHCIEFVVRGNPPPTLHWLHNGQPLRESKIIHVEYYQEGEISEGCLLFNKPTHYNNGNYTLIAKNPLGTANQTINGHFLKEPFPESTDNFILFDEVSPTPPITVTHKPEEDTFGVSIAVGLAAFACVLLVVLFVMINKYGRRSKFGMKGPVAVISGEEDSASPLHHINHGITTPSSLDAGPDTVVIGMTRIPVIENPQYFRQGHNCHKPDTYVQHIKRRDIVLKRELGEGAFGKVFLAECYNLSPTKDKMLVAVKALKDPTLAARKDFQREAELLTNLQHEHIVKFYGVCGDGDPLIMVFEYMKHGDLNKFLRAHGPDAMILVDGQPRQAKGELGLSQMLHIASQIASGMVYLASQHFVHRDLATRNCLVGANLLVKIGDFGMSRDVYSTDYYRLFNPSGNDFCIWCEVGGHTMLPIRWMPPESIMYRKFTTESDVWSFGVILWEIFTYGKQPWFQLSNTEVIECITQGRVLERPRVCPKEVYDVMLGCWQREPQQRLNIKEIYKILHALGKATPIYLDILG
Procedure: as §1, §2, §4, §3

[6] = target: T4, Tel-TrkA (Homo sapiens, UniProt P04629); experiment: Inhibition of proliferation of Ba/F3 cells expressing Tel-TrkA (BaF3/Tel-TrkA, luciferase/Bright Glo readout); type: cell-based; settings: read-out: Ba/F3 Tel-TrkA IC 50
T4 construct: dimerization domain of Tel (ETV6) transcription factor (fusion partner, human ETV6 P41212); expressed in transfected cells; host or cells: luciferase expressing Ba/F3 murine hematopoietic progenitor cells; the other entry of the earlier key: ETV6 (P41212, Transcription factor ETV6)
T4 sequence (P04629 510-796 limits assumed): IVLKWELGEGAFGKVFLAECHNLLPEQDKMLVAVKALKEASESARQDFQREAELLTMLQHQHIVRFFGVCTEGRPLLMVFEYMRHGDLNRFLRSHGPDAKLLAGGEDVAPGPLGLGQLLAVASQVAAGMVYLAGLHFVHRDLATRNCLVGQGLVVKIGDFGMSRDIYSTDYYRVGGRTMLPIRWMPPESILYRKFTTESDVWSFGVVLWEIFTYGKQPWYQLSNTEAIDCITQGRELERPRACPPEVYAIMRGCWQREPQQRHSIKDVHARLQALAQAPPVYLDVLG
Procedure: as §1, §2, §4
as §3, with “50 nl of serially diluted test compound (10-0.0001 mM in DMSO solution) is added to each well.” left out

Row | Structure (SMILES) | BaF3 TRKA-NGF CTG IC 50 [1] [nM] | IC50 [3] [nM] | IC50 [5] [nM] | IC50 [6] [nM] | IC50 [2] [nM] | IC50 [4] [nM]
1 | N#Cc1cccc(-n2cnc3ccc(N4CCCC4c4cccc(F)c4)nc32)c1 (stereo not shown) [Table 1-Compound 1] | 680 | 150 | 69 | 210 | 16000 | 230
2 | N#Cc1cccc(-n2cnc3ccc(N4CCSC4c4cc(F)ccc4F)nc32)c1 (stereo not shown) [Table 1-Compound 3] | 450 | 22 | 18 | 28 | > 10000 | 37
3 | N#Cc1cccc(-n2cnc3ccc(N4C(=O)CSC4c4cc(F)ccc4F)nc32)c1 (stereo not shown) [Table 1-Compound 5] | 3580 | 4170 | 2610 | 5670 | > 10000 | 2290
4 | Cc1ccc(C)c(C2CCCN2c2ccc3ncc(-c4cccc(C(=O)O)n4)n3n2)c1 (stereo not shown) [Table 3-Compound 1] | 1730 | 470 | 240 | 2310 | > 10000 | 190
5 | Fc1cccc(C2CCCN2c2ccc3ncc(-c4csc(N5CCCCC5)n4)n3n2)c1 (stereo not shown) [Table 3-Compound 6] | 540 | 760 | 180 | 360 | > 10000 | 380
6 | CN1CCN(c2cnc(-c3cnc4ccc(N5CCCC5c5cccc(F)c5)nn34)cn2)CC1 (stereo not shown) [Table 3-Compound 7] | 27 | 52 | 20 | 35 | 5030 | 23
7 | Fc1cccc(C2CCCN2c2ccc3ncc(-c4cncc(Cl)n4)n3n2)c1 (stereo not shown) [Table 3-Compound 10] | 180 | 100 | 40 | 200 | > 10000 | 94
8 | Fc1cccc(C2CCCN2c2ccc3ncc(-c4cncc(-n5ccnc5)n4)n3n2)c1 (stereo not shown) [Table 3-Compound 11] | 74 | 56 | 17 | 87 | > 10000 | 36
9 | Fc1cccc(C2CCCN2c2ccc3ncc(-c4ccc5[nH]ccc5c4)n3n2)c1 (stereo not shown) [Table 3-Compound 18] | 20 | 10 | 1.4 | 13 | 7230 | 24
10 | O=C1CN(c2cccc(-c3cnc4ccc(N5CCCC5c5cccc(F)c5)nn34)n2)CCN1 (stereo not shown) [Table 4-Compound 5] | 2.2 | 0.4 | – | 0.7 | > 10000 | 1.2
11 | CCN(CC)CCNc1cccc(-c2cnc3ccc(N4CCCC4c4cccc(F)c4)nn23)n1 (stereo not shown) [Table 4-Compound 14] | 45.2 | 14.9 | – | 21 | 5720 | 30.8
12 | OCC(O)CNc1cccc(-c2cnc3ccc(N4CCCC4c4cccc(F)c4)nn23)n1 (stereo not shown) [Table 4-Compound 16] | 5.2 | 1.5 | – | 6.8 | > 10000 | 2.2
13 | OCc1cccc(-c2cnc3ccc(N4CCCC4c4cccc(F)c4)nn23)n1 (stereo not shown) [Table 7-Compound 2] | 31 | 13 | – | 18 | > 10000 | 26
14 | Cc1cnc(-c2cccc(-c3cnc4ccc(N5CCCC5c5cccc(F)c5)nn34)n2)[nH]1 (stereo not shown) [Table 7-Compound 3] | 19 | 6.6 | – | 6.9 | 3870 | 17
15 | OC1CCN(c2ccc(-c3cccc(-c4cnc5ccc(N6CCCC6c6cccc(F)c6)nn45)n3)cn2)CC1 (stereo not shown) [Table 7-Compound 61] | 9.8 | 7.9 | – | 8.1 | > 10000 | 4

The next lines start with results.

Row | BaF3 TRKA-NGF CTG IC 50 [1] [nM] | IC50 [3] [nM] | IC50 [5] [nM] | IC50 [6] [nM] | Structure (SMILES) | IC50 [2] [nM] | IC50 [4] [nM]
16 | 56 | 36 | – | 36 | Fc1cccc(C2COCCN2c2ccc3ncc(-c4cccc(OC5CCNCC5)n4)n3n2)c1 (stereo not shown) [Table 2-Compound 18] | > 10000 | 22
17 | 30 | 17 | – | 17 | OC1CCN(c2cccc(-c3cnc4ccc(N5CCOCC5c5cccc(F)c5)nn34)n2)CC1 (stereo not shown) [Table 7-Compound 1] | > 10000 | 7.6
18 | 53 | 63 | – | 59 | Fc1cccc(C2COCCN2c2ccc3ncc(-c4cccc(N5CC6CC5CN6)n4)n3n2)c1 (stereo not shown) [Table 7-Compound 9] | > 10000 | 14
19 | 8.1 | 6.7 | – | 6.1 | O=C(NCCO)C1CCN(c2cccc(-c3cnc4ccc(N5CCOCC5c5cccc(F)c5)nn34)n2)CC1 (stereo not shown) [Table 7-Compound 12] | > 10000 | 1.2
20 | 8 | 3 | – | 3 | O=C(O)C1CN(c2cccc(-c3cnc4ccc(N5CCCC5c5cccc(F)c5)nn34)n2)C1 (stereo not shown) [Table 7-Compound 116] | > 9100 | 3
21 | 4 | 3 | – | 3 | CC(=O)N[C@@H]1CCN(c2cccc(-c3cnc4ccc(N5CCCC5c5cccc(F)c5)nn34)n2)C1 (stereo partly shown) [Table 7-Compound 119] | > 11000 | 2
22 | 87 | 52 | – | 65 | O=C(c1cccc(-c2cnc3ccc(N4CCCC4c4cccc(F)c4)nn23)n1)N1CCC(O)CC1 (stereo not shown) [Table 7-Compound 158] | > 11000 | 19
23 | 20 | 15 | – | 13 | CC(F)C(=O)N(C)C1CCN(c2cccc(-c3cnc4ccc(N5CCCC5c5cccc(F)c5)nn34)n2)C1 (stereo not shown) [Table 7-Compound 201] | > 11000 | 10
